Measured values from patent US20200069677A1, “MARKERS FOR PERSONALIZED CANCER TREATMENT WITH LSD1 INHIBITORS” (Constellation Pharmaceuticals, Inc., priority 2016, published 2020).

Experiments:
SET2 xenografts = experiment: In vivo efficacy on SET2 tumor xenografts; conditions: Nude mice; 1.5, 5 and 15 mg/kg p.o. QD; 14 days of dosing
Method: FIG. 12 illustrates the in vivo efficacy of GSK2879552 on SET2 xenografts. […] Tumor-bearing animals were treated with 3 different dose levels of the KDM1A inhibitor: 1.5 mg/kg, 5 mg/kg, and 15 mg/kg administered orally (p.o.) on a daily schedule (QD). […] Top right panel indicates body weight changes determined in the treated mice.

KDM1A/CoREST complex [1] = target: T1, KDM1A/CoREST complex (Homo sapiens, UniProt O60341); experiment: Anti-KDM1A immunoprecipitation and Western blot in HEL cells; format: cell-based; set-up: endogenous in cells; conditions: overnight at 1 μM
Method: For immunoprecipitation, 3 μg of anti-KDM1A antibody (Bethyl Labs, Montgomery, Tex.) or rabbit IgG (Cell Signaling, Danvers, Mass.) were added to 0.5 mg of reconstituted whole cell lysate and placed on a rotator at 4° C. overnight. To isolate the immune complexes, 50 μL of pre-washed Protein G magnetic beads (Dynabeads, Invitrogen) equilibrated in A+C buffer (1:1) were added and the samples were rotated for 4° C. for an additional 2 hours. Beads were captured using a magnetic stand (DynaMag, Invitrogen) and washed 3 times with buffer A+C. The beads were re-suspended in 25 μl 2×SDS loading buffer and resolved on 4-12% SDS-PAGE gels. Co-precipitated proteins were detected by western blotting using the indicated primary antibodies. […] Here, HEL cells were treated with the KDM1A inhibitor RN-1 overnight at 1 μM concentration. Cell lysates were prepared and an immunoprecipitation was carried out using an anti-KDM1A antibody and rabbit IgG as a control. SDS-PAGE and Western blotting was performed on the input material and immunoprecipitated material. Blot was probed with an anti-GFI1B, anti-KDM1A, and anti-vinculin antibodies. Bound antibodies were detected with goat anti-rabbit IgG antibody and goat anti-mouse IgG, conjugated with DyLight 800 AND DyLight 680, respectively.

KDM1A/CoREST complex [2] = target: T1, KDM1A/CoREST complex; experiment: Anti-KDM1A immunoprecipitation and Western blot in SET2 cells; format: cell-based; set-up: endogenous in cells; host or cells: SET2 cells
Method: […] Cells were harvested, washed twice with cold PBS and resuspended in 5 volumes of Buffer A (10 mM Tris-HCL (pH 8.0), 1.5 mM MgCl2, 10 mM KCl, 0.5 mM DTT, supplemented with protease inhibitors). After 15 minutes on ice, cells were spun down at 1000×g for 15 minutes and the supernatant was removed as the cytosolic fraction. Pellets were resuspended in Buffer C (20 mM Tris-HCl, (pH 7.9), 25% glycerol, 0.42 M NaCl, 1.5 mM MgCl2, 0.2 mM EDTA, 0.5 mM DTT and protease inhibitors) and sonicated briefly (3 seconds, 40% output). After incubating on ice for 30 minutes, cells were spun at 20,000×g for 20 minutes to pellet the insoluble material. The supernatant was removed (soluble nuclear fraction) and combined with the cytosolic fraction to reconstitute a whole cell lysate with a final NaCl concentration of <200 mM. […] Co-precipitated proteins were detected by western blotting using the indicated primary antibodies. […] Bound antibodies were detected with goat anti-rabbit IgG antibody and goat anti-mouse IgG, conjugated with DyLight 800 AND DyLight 680, respectively. […]

| CoREST retention in the KDM1A complex (co-immunoprecipitation) (KDM1A/CoREST complex [2]; SET-2 cells, overnight at 1 μM) | SMILES | Growth of SET-2 tumor xenografts (tumor size) (SET2 xenografts) | GFI1B association with the KDM1A/CoREST complex (co-immunoprecipitation) (KDM1A/CoREST complex [1]) | GFI1B association with the KDM1A/CoREST complex (co-immunoprecipitation) (KDM1A/CoREST complex [2]; SET2 cells, 1 μM RN-1 for 24 hours, vs DMSO) |
| --- | --- | --- | --- | --- |
|  | O=C(O)c1ccc(CN2CCC(CN[C@@H]3C[C@H]3c3ccccc3)CC2)cc1 [GSK2879552] | reduced the growth of SET-2 tumor xenografts |  |  |
| CoREST is retained in the KDM1A complex | CN1CCN(C(=O)CN[C@@H]2CC2c2ccc(OCc3ccccc3)cc2)CC1 (stereo partly shown) [RN-1] |  | displacement of GFI1B from the KDM1A/CoREST complex | displacement of GFI1B from the KDM1A/CoREST complex |
